Assay results taken from patent US20250259704A1, “SYSTEMS AND METHODS FOR CELL-FREE ITERATIVE SITE SATURATION MUTAGENESIS AND ITS APPLICATION FOR THE DIRECTED EVOLUTION OF ENZYMES CATALYZING UNNATURAL REACTIONS” (Northwestern University, priority 2022, published 2025).

Key:
Format in all cases: biochemical, Marinactinospora thermotolerans
amide synthetase McbA [1] = assay: Amidation assay with purified McbA variants, products analyzed by LC-MS; settings: for Fold-Increase in yield: best ML-predicted variant (ML-McbA) versus wt-McbA for the named product, purified enzyme 0.5 mg/mL, n=3
Experimental: (§1) Amide products (along with acid substrates and some adenylated acid intermediates) were analyzed using an Agilent G6125B Single Quadrupole LC/MSD system equipped with an electrospray ionization source set to positive ionization mode. The quenched samples were centrifuged for 10 min at 4,500×g to remove precipitated proteins. A separate 384-well plate for sample injection into the HPLC-MS was prepared by diluting 5 μL of the quenched samples with 25 μL of methanol using the Integra VIAFLO. Trace amounts of compounds were detected using MS, while many compounds were present in high enough concentration to quantify by diode array detector (DAD) at 254 nm. Compounds were separated on a Luna C18 Column (Phenomenex 00D-4251-B0) using mobile phases (A) H2O with 0.1% formic acid and (B) Acetonitrile. The general method for chromatographic separation was carried out using the following gradients at a constant flow rate of 0.5 mL/min: 0 min 5% B; 1 min 5% B; 4 min 95% B; 4.5 min 95% B; 5 min 5% B. For the MS, capillary voltage was set at 3 kV, and nitrogen gas was used for nebulizing (35 psig) and drying (12 l/min, 350° C.). The MS was calibrated using Tuning Mix (Agilent G2421-60001) before measurements were taken. MS data were acquired with a scan range of 50-600 m/z with various SIM m/z's according to which compound the inventors were screening for. LC-MS data were collected and analyzed using Agilent OpenLab CDS ChemStation software. The product yield was calculated by dividing the DAD peak area for the amide product by the sums of the peak areas of both the amide and the acid substrate.
Amidation assays for the purified McbA variants were set up similarly as described above. 8-μL reactions were assembled in triplicate, containing […], 10 mM MgCl2, 10 U/mL pyrophosphatase (Sigma I5907), 0.5 mg/mL McbA, 10% v/v DMSO, and volume to fill of 50 mM potassium phosphate pH 7.5. For assaying the production of cinchocaine and procainamide, substrates were decreased in stoichiometric amounts to 20 mM and 10 mM, respectively. This was to compensate for an observed poor solubility of these two acids (2-butoxyquinoline-4-carboxylic acid and 4-aminobenzoic acid) in the purified reaction at 10% v/v DMSO. Reactions were incubated at 37° C. for 16 hours and then quenched with 25-μL of methanol. The CAS numbers of all chemicals used in the hot spot screens, as well as the amide standards the inventors purchased, can be found in Table 1.
With the MLDE strategy validated, the approach could enable parallelized protein engineering for a wide variety of molecules (FIG. 14A). Starting with an identified target reaction from our substrate scope screen (FIGS. 5A-5F), we could use the same instance of our 1,280 single mutant McbA variant library to perform an HSS, select four hot spots, train and implement our machine learning model, and experimentally test the top 24 predictions (FIG. 14B). This approach was used to engineer distinct McbA mutants for the synthesis of an additional six pharmaceutical compounds (FIGS. 14B-14C). After identifying the best predicted variant for each reaction, the best variant for each reaction was expressed and purified, and the activity for each compound compared to wt-McbA (FIG. 14D). Fold-increase in yield observed compares wt-McbA to ML-McbA (n=3) for each small-molecule pharmaceutical. Increases in yield of the best mutant were observed ranging from 1.6-fold to 34-fold over wt-McbA for the six compounds tested.

amide synthetase McbA [2] = assay: Substrate scope screen of McbA (all-by-all acids and amines, RP-HPLC); settings: for wt conversion: conversion to the named amide product by wild-type McbA, ~1 μM enzyme, 25 mM substrates, 10% DMSO
Experimental: as §1, with “MS data were acquired with a scan range of 50-600 m/z with various SIM m/z's according to which compound the inventors were screening for.” left out
(§2) All high-throughput assays (hot spot screen, iterative site saturation mutagenesis, substrate scope, ML predictions validation, and ML prediction exploration) were assembled in 384-well plates (Bio-Rad) using an Integra VIAFLO liquid handling robot. […] The amidation assay was initiated by adding 3-μL of crude CFPS reaction containing an expressed McbA variant, with final concentrations of 25 mM ATP, 25 mM acid, 25 mM amine, 10% v/v DMSO, and ˜1 μM of enzyme (determined by ^14C-leucine incorporation using previously described protocols^66). […]

amide synthetase McbA [3] = assay: High-throughput amidation assay with crude CFPS-expressed McbA variants (hot spot screen, ISM)
Experimental: as §1, with “MS data were acquired with a scan range of 50-600 m/z with various SIM m/z's according to which compound the inventors were screening for.” left out
as §2

Row | Molecule | Fold-Increase in yield (amide synthetase McbA [1]) [fold] | also measured
1 | CCN(CC)CCNC(=O)c1ccc(N)cc1 [Procainamide] | 10 | 
2 | CCN(CC)CCNC(=O)c1ccc(N)c(Cl)c1 [Declopramide] | 2.7 | 
3 | CCCCOc1cc(C(=O)NCCN(CC)CC)c2ccccc2n1 [Cinchocaine] | 1.7 | wt conversion (amide synthetase McbA [2]): 2%
4 | CCN(CC)CCNC(=O)c1cc(Cl)c(N)cc1OC [Metoclopramide] |  | wt conversion (amide synthetase McbA [2]): 3%
5 | COc1cc(C(=O)NCc2ccc(OCCN(C)C)cc2)cc(OC)c1OC [Trimethobenzamide] | 4.1 | 
6 | CCN1CCCC1CNC(=O)c1cc(S(N)(=O)=O)ccc1OC (centres unmarked) [Sulpiride] | 6 | 
7 | COc1cc(C(=O)NC2CCCNC2)cc(OC)c1OC (centres unmarked) [Troxipide] | 34 | 
8 | COc1ccc(C(=O)NCc2ccc(OCCN(C)C)cc2)cc1OC [Itopride] | 1.6 | 
9 | wt-McbA: wild-type amide bond synthetase McbA from Marinactinospora thermotolerans with CSL-tag, SEQ ID NO: 2 (protein, CSL-tag) MEKKIWSHPQFEKGGSGENLYFQGGYARRVMDGIGEVAVTGAGGSVTGARLRHQVRLLAHALTEAGIPPGRGVACLHANTWRAIALRLAVQAIGCHYVGLRPTAAVTEQARAIAAADSAALVFEPSVEARAADLLERVSVPVVLSLGPTSRGRDILAASVPEGTPLRYREHPEGIAVVAFTSGTTGTPKGVAHSSTAMSACVDAAVSMYGRGPWRFLIPIPLSDLGGELAQCTLATGGTVVLLEEFQPDAVLEAIERERATHVFLAPNWLYQLAEHPALPRSDLSSLRRVVYGGAPAVPSRVAAARERMGAVLMQNYGTQEAAFIAALTPDDHARRELLTAVGRPLPHVEVEIRDDSGGTLPRGAVGEVWVRSPMTMSGYWRDPERTAQVLSGGWLRTGDVGTFDEDGHLHLTDRLQDIIIVEAYNVYSRRVEHVLTEHPDVRAAAVVGVPDPDSGEAVCAAVVVADGADPDPEHLRALVRDHLGDLHVPRRVEFVRSIPVTPAGKPDKVKVRTWFTD |  | conversion (yield) of moclobemide (amide synthetase McbA [3]; final screening conditions, moclobemide synthesis, 25 mM ATP, acid, amine, 10% v/v DMSO, 37° C. 16 hours): 12%; amide bond formation step for troxipide (amide synthetase McbA [1]; proficient at adenylating 3,4,5-trimethoxybenzoic acid, intermediate seen by LCMS): unable to catalyze amide bond formation; stereoselectivity (amide synthetase McbA [2]; sulpiride synthesis): strongly favoring the synthesis of S-sulpiride over R-sulpiride
10 | qm-McbAmetoclopramide: quadruple mutant of McbA from ISM campaign for metoclopramide, SEQ ID NO: 146 (protein) MEKKIWSHPQFEKGGSGENLYFQGGYARRVMDGIGEVAVTGAGGSVTGARLRHQVRLLAHALTEAGIPPGRGVACLHANTWRAIALRLAVQAIGCHYVGLRPTAAVTEQARAIAAADSAALVFEPSVEARAADLLERVSVPVVLSLGPTSRGRDILAASVPEGTPLRYREHPEGIASVAFTSGTTGTPKGVAHSSTAMSACVDAAVSMYGRGPWRFLIPIPLSDLGGELAQCTLATGGTVVLLEEFQPDAVLEAIERERATHVFLAPNWLYQLAEHPALPRSDLSSLRRVVYGGAPAVPSRVAAARERMGAVLMQNYGCQEAFFIAALTPDDHARRELLTAVGRPLPHVEVEIRDDSGGTLPRGAVGEVWVRSPMTMSGYWRDPERTAQVLSGGWLRTGDVGTFDEDGHLHLTDRLQDIIIVETYNVYSRRVEHVLTEHPDVRAAAVVGVPDPDSGEAVCAAVVVADGADPDPEHLRALVRDHLGDLHVPRRVEFVRSIPVTPAGKPDKVKVRTWFTD |  | activity over wt-McbA (amide synthetase McbA [3]; metoclopramide synthesis, after three rounds of ISM): ~30 fold
11 | ml-McbAtroxipide: best ML-predicted McbA variant for troxipide, SEQ ID NO: 155 (protein) MEKKIWSHPQFEKGGSGENLYFQGGYARRVMDGIGEVAVTGAGGSVTGARLRHQVRLLAHALTEAGIPPGRGVACLHANTWRAIALRLAVQAIGCHYVGLRPTAAVTEQARAIAAADSAALVFEPSVEARAADLLERVSVPVVLSLGPTSRGRDILAASVPEGTPLRYREHPEGIAAVAFTSGTTGTPKGVAHSSTAMSACVDAAVSMYGRGPWRFLIPIPLSDLGGELAQCTLATGGTVVLLEEFQPDAVLEAIERERATHVFLAPNWLYQLAEHPALPRSDLSSLRRVVYGGAPAVPSRVAAARERMGAVLMQNYGTQEALFIAALTPDDHARRELLTAVGRPLPHVEVEIRDDSGGTLPRGAVGEVWVRSPMTMSGYWRDPERTAQVLSGGWLRTGDVGTFDEDGHLHLTDRLQDIIIVETYNVYSVRVEHVLTEHPDVRAAAVVGVPDPDSGEAVCAAVVVADGADPDPEHLRALVRDHLGDLHVPRRVEFVRSIPVTPAGKPDKVKVRTWFTD |  | increase in activity (amide synthetase McbA [1]; troxipide synthesis, versus wt-McbA): 34 fold
